Measurements from PubChem BioAssay (NCI).
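Five compound concentrations were applied to cells in 96-well plates for 48 hours; endpoints were derived by simple linear interpolation of the resulting dose-response curve. Here, GI50 denotes the concentration required for 50% inhibition of growth. The concentration for full growth arrest is given as TGI.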

Assays:
Assay in all cases: NCI-60 cell line screen, 48 h
HOP-92 NSCLC = system: HOP-92 NSCLC
HT29 colon = system: HT29 colon
OVCAR-5 ovarian = system: OVCAR-5 ovarian
NCI-H23 lung = system: NCI-H23 lung
EKVX NSCLC = system: EKVX NSCLC
SK-OV-3 ovarian = system: SK-OV-3 ovarian
OVCAR-8 ovarian = system: OVCAR-8 ovarian
UACC-257 melanoma = system: UACC-257 melanoma
MALME-3M melanoma = system: MALME-3M melanoma
SK-MEL-5 melanoma = system: SK-MEL-5 melanoma
HOP-62 NSCLC = system: HOP-62 NSCLC

Row | Compound | GI50 (HOP-92 NSCLC) [µM] | TGI (HOP-92 NSCLC) [µM] | GI50 (HT29 colon) [µM] | TGI (HT29 colon) [µM] | GI50 (OVCAR-5 ovarian) [µM] | TGI (OVCAR-5 ovarian) [µM] | GI50 (NCI-H23 lung) [µM] | TGI (NCI-H23 lung) [µM] | GI50 (EKVX NSCLC) [µM] | TGI (EKVX NSCLC) [µM] | GI50 (SK-OV-3 ovarian) [µM] | TGI (SK-OV-3 ovarian) [µM] | GI50 (OVCAR-8 ovarian) [µM] | TGI (OVCAR-8 ovarian) [µM] | GI50 (UACC-257 melanoma) [µM] | TGI (UACC-257 melanoma) [µM] | GI50 (MALME-3M melanoma) [µM] | TGI (MALME-3M melanoma) [µM] | TGI (SK-MEL-5 melanoma) [µM] | TGI (HOP-62 NSCLC) [µM]
1 | CCCCCCCCCCCCCCCCCCOc1ccccc1CC(=O)OCC[N+]1(C)CCCCC1 | 1.32 | 3.35 | 1.61 | 3.1 | 2.32 | 7.49 | 1.8 | 4.25 | 2.65 | 17.5 | 18.2 | 38.2 | 2.4 | 5.99 | 2.79 | 7.91 | 1.97 | 4.86 | – | –
2 | CN(CCCCCl)P(=O)(OCc1ccc([N+](=O)[O-])o1)OC[C@H]1O[C@@H](n2cc(F)c(=O)[nH]c2=O)C[C@@H]1O (stereo partly drawn) | – | 20.3 | – | > 100 | – | > 100 | – | 20.5 | – | > 100 | – | 34.1 | – | > 100 | – | > 68 | – | 36.1 | 12.9 | 25.6
3 | CN1CCc2[nH]c3ccccc3c2C1 | – | > 100 | – | > 100 | – | > 100 | – | > 100 | – | > 100 | – | > 100 | – | > 100 | – | > 100 | – | > 100 | > 100 | > 100
4 | CC(CCN)(CCN)[N+](=O)[O-] | – | > 100 | – | > 100 | – | > 100 | – | > 100 | – | > 100 | – | > 100 | – | > 100 | – | > 100 | – | > 100 | > 100 | > 100
5 | NN(CC(=O)O)CC(=O)O | – | – | – | > 100 | – | > 100 | – | > 100 | – | > 100 | – | > 100 | – | > 100 | – | > 100 | – | > 100 | > 100 | > 100
6 | O=C([O-])C[n+]1ccccc1 | – | > 100 | – | > 100 | – | > 100 | – | > 100 | – | > 100 | – | > 100 | – | > 100 | – | > 100 | – | > 100 | > 100 | > 100
7 | C[C@]12C=CC(=O)C=C1CC[C@@H]1[C@@H]2CC[C@]2(C)OC(=O)CC[C@@H]12 | – | 500 | – | > 500 | – | > 500 | – | 499 | – | > 500 | – | > 500 | – | 498 | – | > 500 | – | > 500 | > 477 | > 471
8 | COc1cc2c(c(O)c1OC)-c1c(cc(OC)c(OC)c1OC)CC(C)C(C)C2 (stereo not drawn) | – | > 100 | – | > 100 | – | > 100 | – | > 100 | – | > 100 | – | > 100 | – | > 100 | – | > 100 | – | > 100 | > 100 | > 100
9 | Nc1ncnc2c1ncn2C=C=CCO | – | > 100 | – | > 100 | – | > 100 | – | > 100 | – | – | – | – | – | > 100 | – | > 100 | – | > 100 | > 100 | > 100
10 | COCCOC(=O)c1c(C)n([O-])c2cc(Cl)c(Cl)cc2[n+]1=O | – | 25.3 | – | 41.8 | – | 34.6 | – | 79.2 | – | 36.8 | – | 47.5 | – | 25.7 | – | > 100 | – | 46.3 | 21.6 | 35
11 | C=C1c2ccccc2C(=O)c2c1c1c(C(=O)OC)c(O)ccc1n2Cc1ccccc1 | – | 0.613 | – | 0.823 | – | 2.44 | – | 2.8 | – | 2.34 | – | 1.35 | – | 0.952 | – | 5.98 | – | 1.18 | 1.97 | 1.53
12 | O=C(Nc1ccc(Cl)cc1)c1cc2cc(N=Nc3ccccc3Cl)ccc2oc1=O | – | 38.8 | – | 29.6 | – | 91.3 | – | 34.5 | – | 57.5 | – | 84 | – | 59 | – | 68.2 | – | 48.3 | 61.9 | 61.9
13 | Nc1ncnc2nc[nH]c12 | – | > 250 | – | > 250 | – | > 250 | – | > 250 | – | > 250 | – | > 250 | – | > 250 | – | > 250 | 86 | > 232 | > 250 | > 250
